Data on 1 substance can be found in patent US11628169B2, “Therapeutic drug for motor complications in Parkinson's disease” (Sumitomo Pharma Co., Ltd., priority 2020, dated 2023).

The subject of one data set is 6-OHDA-lesioned rats. In words: Prevention/suppression of dyskinesia-like symptoms during repeated levodopa administration. Format: in vivo, rat. Particulars: vs solvent group; for increase in total AIMs score associated with repeated administration of levodopa: days 3, 5, 9, 15. As for the experimental part: The prepared solution was used after injection into an ALZET® Osmotic Pump MODEL 2ML2 (4.53 μL/hour; DURECT).
6-OHDA-lesioned rats were assigned to each administration group using the number of apomorphine hydrochloride hemihydrate induced rotations and body weight as indicators. […] The osmotic pump implanted subcutaneously was retrieved after the observation and evaluation of behavior on day 15. The behavior was also observed and evaluated on the following day (day 16 of repeated administration of levodopa).
The test results were statistically analyzed by comparison with the solvent administration group using Steel test with the total AIMs score on day 16 of repeated levodopa administration as the parameter. * indicates p<0.05 and ** indicates p<0.01, meaning that there is a significant difference compared to the solvent administration group.

Data set [1] concerns PD-LID rat model. In words: Dyskinesia-like symptom (AIMs) score in PD-LID rat model. Format: in vivo.
Data set [2] has as its system PD-LID rat model. In words: ON score and ON time without dyskinesia in PD-LID rat model. Particulars: for total ON score (Locomotive behavior) in 3 hours: levodopa 5 min later. In kind it is in vivo. The procedure:
To make a PD-LID rat model, a mixture of levodopa methyl ester hydrochloride (6 mg/kg; Sigma-Aldrich) dissolved in saline and benserazide hydrochloride (15 mg/kg; Sigma-Aldrich) (hereinafter, also referred to as “levodopa containing solution”) was intraperitoneally administered once daily to 6-OHDA-lesioned rats. The levodopa containing solution was repeatedly administered for 3 weeks or longer to observe and evaluate the behavior. The behavior was observed and evaluated in a transparent acrylic cage for 1 minute every 20 minutes after 20 minutes from the intraperitoneal administration of the levodopa containing solution, up until after 3 hours from administration. […] Individuals with a total AIMs score of less than 10 were excluded from the test as not manifesting a dyskinesia-like symptom. The behavior was observed and evaluated before the drug evaluation date. […] For an indicator of dyskinesia behavior, the sum of the Limb AIMs, Axial AIMs, and Orolingual AIMs at each evaluation point was used as the AIMs score. For the rotational behavior (ON score), Locomotive behavior at each evaluation point was used as an indicator. […] For ON time without dyskinesia, the period during which the AIMs score is 0 and Locomotive behavior is 1 or greater at each evaluation point was added. Duration of action of levodopa without a dyskinesia symptom (ON time without dyskinesia) refers to the aggregate time with no dyskinesia during the antiparkinsonian action effective time, i.e., “ON-time”, and defined as the time during which the dyskinesia symptom (AIMs) score is 0 and the rotational behavior (Locomotive behavior) score is 1 or greater at each evaluation point after levodopa administration. […] After 5 minutes, a levodopa containing solution was intraperitoneally administered, and the behavior was observed and evaluated. The results in the drawings are indicated in terms of mean value±standard error. […] For evaluation of a tape agent, the abdominal regions of the rats were shaved prior to the evaluation date. […] After 4 hours from application, a levodopa containing solution was intraperitoneally administered to observe and evaluation the behavior. The results in the drawings are indicated in terms of mean value±standard error. Individuals with 50% or more of the tape agent coming off during the test were excluded from analysis.

The nature of data set [3]: Plasma tandospirone concentration after observation of behavior in PD-LID rats. In kind it is in vivo, rat. The conditions noted are these: continuous subcutaneous infusion 60 mg/mL (mean 0.78 mg/kg/hour as citrate). The procedure:
50 μL of rat plasma sample was fractionated into a polypropylene microtube. 50 μL of methanol (50 μL of standard solution for calibration curve sample) and 200 μL of internal standard solution (Bezafibrate methanol solution: 200 nmol/L, 200 μL of methanol for blank sample) are added and stirred for about 10 seconds with a mixer. This is centrifuged (4° C., 4500 rpm, 10 min), and then the supernatant is subjected to vacuum filtration using a filter (FastRemover MF 0.2 μm). 70 μL of aqueous 10 mmol/L ammonium acetate solution is added to 70 μL of the resulting filtrate and stirred for about 10 seconds with a mixer to prepare a measurement sample.
When evaluating a tape agent, the hair on the abdominal region of rats was shaved before the evaluation date. The tape agent of formulation 2 was applied to the abdominal regions of rats on the evaluation date at 60 cm^2/kg (37 mg/kg). After 4 hours from application, a levodopa containing solution was intraperitoneally administered to observe and evaluate the behavior. Individuals with 50% or more of the tape agent coming off during the test were excluded from analysis. […]
After 4 hours, a levodopa containing solution was administered to observe and evaluate the behavior (day 0 of implanting the pump). […] The behavior was also observed and evaluated on day 13 of implanting the pump.

Setting [4] is: oral 67 mg/kg as free form (100 mg/kg as citrate).

Entries after “also recorded” stand apart in the source; their conditions may differ.

Regarding tandospirone citrate, the “increase in total AIMs score associated with repeated administration of levodopa” value in the data set on 6-OHDA-lesioned rats (continuous subcutaneous infusion 30 mg/mL (mean of 0.41 mg/kg/hour)) and in the data set on 6-OHDA-lesioned rats (continuous subcutaneous infusion 60 mg/mL (mean of 0.83 mg/kg/hour)) was “suppressed the increase in total AIMs score” throughout. Further, the “total AIMs score on the day after completion of administration (day 16)” value with 6-OHDA-lesioned rats (continuous subcutaneous infusion 30 mg/mL or 60 mg/mL, pump retrieved day 15) is listed as “significantly lower”. In addition, the “dyskinesia-like symptoms (total AIMs score in 3 hours)” value with PD-LID rat model [1] (continuous subcutaneous infusion 60 mg/mL (mean 0.78 mg/kg/hour), day 13 of implanting the pump, vs solvent group) is “significant improvement in dyskinesia-like symptoms”. The “(i) Degree of improvement in indicator of dyskinesia symptom (total AIMs score in 3 hours, solvent minus tandospirone group)” value in the data set on PD-LID rat model [1] (oral 6.7 mg/kg as free form (10 mg/kg as citrate)), in the data set on PD-LID rat model [1] (oral 20 mg/kg as free form (30 mg/kg as citrate)) and in the data set on PD-LID rat model [1] (setting [4]) was “significant change in the total AIMs score was not observed” throughout. The “(ii) Indicator of rebound symptom of dyskinesia (total dyskinesia-like symptom score in 100 to 180 minutes, solvent minus tandospirone group)” value was “significant increase in the total AIMs score” in the data set with PD-LID rat model [1] (oral 20 mg/kg as free form (30 mg/kg as citrate), experiment printed as (FIG. 7)); “significant increase in the total AIMs score” with PD-LID rat model [1] (oral 20 mg/kg as free form (30 mg/kg as citrate), experiment printed as (FIGS. 8A-8B)); “significant increase in the total AIMs score” in the data set on PD-LID rat model [1] (setting [4]). Also, the “(iii) Duration of action of levodopa without dyskinesia symptom (ON time without dyskinesia)” value in the data set on PD-LID rat model [2] (oral 20 mg/kg as free form (30 mg/kg as citrate), vs solvent group) was “increase in ON time without dyskinesia”; in the data set on PD-LID rat model [2] (oral 67 mg/kg as free form (100 mg/kg as citrate), prolongation vs solvent group) it was “significant prolongation in the ON-time without dyskinesia; also recorded: increase in ON time without dyskinesia”. The “total ON score (Locomotive behavior) in 3 hours” value is “increase in the total ON score” with PD-LID rat model [2] (oral 30 mg/kg as citrate, vs solvent group) and “increase in the total ON score” in the data set on PD-LID rat model [2] (oral 100 mg/kg as citrate, vs solvent group). The “mean value of the plasma tandospirone concentrations (value converted in terms of free form)” value in data set [3] (day 0 of implanting the pump) is listed as 281 ng/mL; in data set [3] (day 13 of implanting the pump), 143 ng/mL.
